# Experimental data reported in ChEMBL document CHEMBL4837238, “Feature-Based Molecular Networking for the Targeted Identification of Gq-Inhibiting FR900359 Derivatives” (J Nat Prod, 2021).
# Starred links: 1 amine or outer side, 2 acyl side, 3 side chain; linkers in the order of their positions; H or OH if unused. Positions of bridges follow the written chain, without caps; N, C: chain ends. Non-standard residues stand in square brackets, D forms with d. Residues, ends and D or L forms follow the SMILES beside them. *: point of attachment. Leu(3R-OH,Nα-propionyl) = CCC(=O)N[C@H](C(=O)*)[C@H](O)C(C)C; X1 = CC(C)[C@@H](O[*:3])[C@H](N[*:1])C(=O)[*:2]; NMeT = CN[C@H](C(=O)O)[C@@H](C)O; dPhLac = O=C(O)[C@H](O)Cc1ccccc1; NMeA = CN[C@@H](C)C(=O)O; NMeDha = C=C(NC)C(=O)O
# Experiments:
# [1] = Displacement of [3H]-PSB15900 from human platelet membrane Gq incubated for 90 mins by scintillation counter method; format: cell membranes
# [2] = biological target: T1, Guanine nucleotide-binding protein G(q) subunit alpha (Homo sapiens, UniProt P50148); assay: Inhibition of wild type GNAQ (unknown origin) expressed in CRISPR/Cas9 engineered HEK293 cells; format: cell-based
# T1 sequence (P50148 whole entry): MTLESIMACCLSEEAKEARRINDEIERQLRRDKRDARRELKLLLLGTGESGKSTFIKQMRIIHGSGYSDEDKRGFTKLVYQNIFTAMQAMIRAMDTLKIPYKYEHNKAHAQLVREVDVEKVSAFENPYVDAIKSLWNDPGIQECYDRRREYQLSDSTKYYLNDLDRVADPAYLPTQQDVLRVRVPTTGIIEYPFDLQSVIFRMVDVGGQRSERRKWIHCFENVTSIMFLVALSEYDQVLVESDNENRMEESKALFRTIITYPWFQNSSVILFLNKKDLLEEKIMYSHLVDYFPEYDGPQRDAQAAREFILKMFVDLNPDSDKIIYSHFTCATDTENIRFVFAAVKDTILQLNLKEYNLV
SMILES,pKi [1],IC50 [2]
"C=C1C(=O)N[C@@H](C)C(=O)N(C)[C@@H](C)C(=O)N[C@@H]([C@H](OC(=O)[C@@H](NC(=O)CC)[C@H](O)C(C)C)C(C)C)C(=O)N(C)[C@@H]([C@@H](C)OC)C(=O)O[C@H](C(C)C)[C@H](NC(C)=O)C(=O)O[C@H](Cc2ccccc2)C(=O)N1C (Ac-[X1][dPhLac][NMeDha]A[NMeA][X1](Leu(3R-OH,Nα-propionyl))[NMeT](Me); ester 1-C)",8.66,
"C=C1C(=O)N[C@@H](C)C(=O)N(C)[C@@H](C)C(=O)N[C@@H]([C@H](OC(=O)[C@@H](NC(C)=O)C(O)C(C)C)C(C)C)C(=O)N(C)/C(=C\C)C(=O)O[C@H](C(C)C)[C@H](NC(C)=O)C(=O)O[C@H](Cc2ccccc2)C(=O)N1C (single isomer, unassigned)",7.5,2.75 µM
